Measurements as given in ChEMBL document CHEMBL5247677, “N-Aryl Indoles as a Novel Class of Potent NaV1.7 Inhibitors” (ACS Med Chem Lett, 2023).
Converted amounts (≈) assume the structure as drawn. The source made the active and inactive calls. The rule behind the calls is not given here.

Key:
[1] = biological target: Sodium channel protein type 9 subunit alpha/beta-1/beta-2 (Homo sapiens, UniProt Q15858); test: Inhibition of human Nav1.7/beta1/2 transfected in HEK293-A cells assessed as inhibition of channel current incubated for 5.5 mins by high-throughput electrophysiology system analysis; assay type: cell-based
[2] = biological target: Sodium channel protein type 9 subunit alpha/beta-1/beta-2 (Mus musculus, UniProt Q62205); test: Inhibition of mouse Nav1.7/beta1/2 transfected in HEK293-A cells assessed as inhibition of channel current incubated for 5.5 mins by high-throughput electrophysiology system analysis; assay type: cell-based
[3] = biological target: Sodium channel protein type 1 subunit alpha/beta-1/beta-2 (Homo sapiens, UniProt P35498); test: Inhibition of human Nav1.1/beta1/2 transfected in HEK293-A cells assessed as inhibition of channel current incubated for 5.5 mins by high-throughput electrophysiology system analysis; assay type: toxicity, cell-based
[4] = biological target: Sodium channel protein type 5 subunit alpha/beta-1/beta-2 (Homo sapiens, UniProt Q14524); test: Inhibition of human Nav1.5/beta1/2 transfected in HEK293-A cells assessed as inhibition of channel current incubated for 5.5 mins by high-throughput electrophysiology system analysis; assay type: toxicity, cell-based
[5] = Selectivity ratio of IC50 for human Nav1.1/beta1/2 transfected in HEK293-A cells to IC50 for human Nav1.7/beta1/2 transfected in HEK293-A cells
[6] = Selectivity ratio of IC50 for human Nav1.5/beta1/2 transfected in HEK293-A cells to IC50 for human Nav1.7/beta1/2 transfected in HEK293-A cells
hERG (KCNH2) = hERG (KCNH2) (Homo sapiens, UniProt Q12809); test: Inhibition of hERG at 100 uM; assay type: toxicity
[7] = 1-Octanol/PBS buffer distribution coefficient, log D of the compound at pH 7.4 by HPLC/LC-MS analysis; assay type: physicochemical
[8] = Aqueous thermodynamic solubility of the compound at pH 6.8 measured after 4 hrs by HPLC-UV analysis; assay type: physicochemical; details: read-out: Therm_solubility
[9] = Unbound fraction in mouse plasma; assay type: ADME, cell-free
Mus musculus [10] = test: Analgesic activity against PSL-induced neuropathic pain mouse model assessed as reversal of thermal hyperalgesia at 1 mg/kg, po measured after 30 mins by plantar test; assay type: functional
Mus musculus [11] = test: Analgesic activity against PSL-induced neuropathic pain mouse model assessed as reversal of thermal hyperalgesia at 1 mg/kg, po measured after 60 mins by plantar test; assay type: functional, organism-based
Mus musculus [12] = test: Analgesic activity against PSL-induced neuropathic pain mouse model assessed as reversal of thermal hyperalgesia at 1 mg/kg, po measured after 120 mins by plantar test; assay type: functional, organism-based
[13] = Cmax in ddY mouse at 1 mg/kg, po by LC-MS/MS analysis; assay type: ADME, organism-based; set-up: dose 1 mg/kg, route po; details: in vivo
[14] = Tmax in ddY mouse at 1 mg/kg, po by LC-MS/MS analysis; assay type: ADME, organism-based; details: in vivo
[15] = AUC(0 to 24 hrs) in ddY mouse at 1 mg/kg, po by LC-MS/MS analysis; assay type: ADME, organism-based; set-up: dose 1 mg/kg, route po; details: in vivo
[16] = Half life in ddY mouse at 1 mg/kg, po by LC-MS/MS analysis; assay type: ADME, organism-based; details: in vivo
[17] = Total body clearance in ddY mouse at 1 mg/kg, iv by LC-MS/MS analysis; assay type: ADME, organism-based; details: in vivo
[18] = Volume of distribution at steady state in ddY mouse at 1 mg/kg, iv by LC-MS/MS analysis; assay type: ADME, organism-based; details: in vivo, read-out: Vdss
[19] = Bioavailability in ddY mouse at 1 mg/kg, iv by LC-MS/MS analysis; assay type: ADME, organism-based; details: in vivo
[20] = Ratio of fCmax in ddY mouse plasma at 1 mg/kg, po to IC50 for inhibition of mouse Nav1.7/beta1/2 transfected in HEK293-A cells
Mus musculus [21] = test: Analgesic activity against PSL-induced neuropathic pain mouse model assessed as reversal of thermal hyperalgesia at 1 mg/kg, po measured after 240 mins by plantar test; assay type: functional, organism-based
Cytochrome P450 1A2 = biological target: T1, Cytochrome P450 1A2 (Homo sapiens, UniProt P05177); test: Inhibition of CYP1A2 (unknown origin) at 10 uM; assay type: ADME
T1 sequence (P05177 whole entry): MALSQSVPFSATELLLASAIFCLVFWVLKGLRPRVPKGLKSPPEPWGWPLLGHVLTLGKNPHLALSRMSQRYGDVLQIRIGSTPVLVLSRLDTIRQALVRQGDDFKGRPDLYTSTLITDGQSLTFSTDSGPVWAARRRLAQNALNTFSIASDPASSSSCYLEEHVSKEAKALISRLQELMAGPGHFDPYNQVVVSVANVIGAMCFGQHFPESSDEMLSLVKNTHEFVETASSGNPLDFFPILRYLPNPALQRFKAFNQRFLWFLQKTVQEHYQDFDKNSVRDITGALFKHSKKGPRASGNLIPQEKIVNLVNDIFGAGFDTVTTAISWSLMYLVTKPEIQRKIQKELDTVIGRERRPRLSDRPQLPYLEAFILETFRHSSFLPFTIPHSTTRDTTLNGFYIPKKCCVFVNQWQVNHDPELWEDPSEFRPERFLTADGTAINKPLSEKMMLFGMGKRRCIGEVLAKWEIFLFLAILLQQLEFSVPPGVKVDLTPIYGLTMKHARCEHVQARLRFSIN

Cytochrome P450 2C9 = Cytochrome P450 2C9 (Homo sapiens, UniProt P11712); test: Inhibition of CYP2C9 (unknown origin) at 10 uM; assay type: ADME
Cytochrome P450 2D6 = Cytochrome P450 2D6 (Homo sapiens, UniProt P10635); test: Inhibition of CYP2D6 (unknown origin) at 10 uM; assay type: ADME
Cytochrome P450 3A4 = Cytochrome P450 3A4 (Homo sapiens, UniProt P08684); test: Inhibition of CYP3A4 (unknown origin) at 10 uM; assay type: ADME
[22] = Glutathione reactivity in human liver microsome assessed as GSH adduct formation; assay type: ADME; details: microsomes

Chain of Cytochrome P450 2C9 (P11712 whole entry): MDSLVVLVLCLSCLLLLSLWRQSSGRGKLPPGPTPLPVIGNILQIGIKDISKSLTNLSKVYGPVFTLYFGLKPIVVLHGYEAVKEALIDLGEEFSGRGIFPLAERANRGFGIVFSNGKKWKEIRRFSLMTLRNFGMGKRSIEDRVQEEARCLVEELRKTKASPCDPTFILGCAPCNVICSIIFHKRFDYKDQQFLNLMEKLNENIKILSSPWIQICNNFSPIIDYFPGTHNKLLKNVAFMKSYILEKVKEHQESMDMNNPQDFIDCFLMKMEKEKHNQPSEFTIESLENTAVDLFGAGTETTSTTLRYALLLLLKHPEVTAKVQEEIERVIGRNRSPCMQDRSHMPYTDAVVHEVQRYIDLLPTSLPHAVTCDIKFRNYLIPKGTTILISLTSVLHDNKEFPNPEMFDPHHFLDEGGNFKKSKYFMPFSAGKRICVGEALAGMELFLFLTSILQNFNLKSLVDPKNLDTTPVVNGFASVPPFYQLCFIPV
Chain of Sodium channel protein type 5 subunit alpha/beta-1/beta-2 (Q14524 whole entry): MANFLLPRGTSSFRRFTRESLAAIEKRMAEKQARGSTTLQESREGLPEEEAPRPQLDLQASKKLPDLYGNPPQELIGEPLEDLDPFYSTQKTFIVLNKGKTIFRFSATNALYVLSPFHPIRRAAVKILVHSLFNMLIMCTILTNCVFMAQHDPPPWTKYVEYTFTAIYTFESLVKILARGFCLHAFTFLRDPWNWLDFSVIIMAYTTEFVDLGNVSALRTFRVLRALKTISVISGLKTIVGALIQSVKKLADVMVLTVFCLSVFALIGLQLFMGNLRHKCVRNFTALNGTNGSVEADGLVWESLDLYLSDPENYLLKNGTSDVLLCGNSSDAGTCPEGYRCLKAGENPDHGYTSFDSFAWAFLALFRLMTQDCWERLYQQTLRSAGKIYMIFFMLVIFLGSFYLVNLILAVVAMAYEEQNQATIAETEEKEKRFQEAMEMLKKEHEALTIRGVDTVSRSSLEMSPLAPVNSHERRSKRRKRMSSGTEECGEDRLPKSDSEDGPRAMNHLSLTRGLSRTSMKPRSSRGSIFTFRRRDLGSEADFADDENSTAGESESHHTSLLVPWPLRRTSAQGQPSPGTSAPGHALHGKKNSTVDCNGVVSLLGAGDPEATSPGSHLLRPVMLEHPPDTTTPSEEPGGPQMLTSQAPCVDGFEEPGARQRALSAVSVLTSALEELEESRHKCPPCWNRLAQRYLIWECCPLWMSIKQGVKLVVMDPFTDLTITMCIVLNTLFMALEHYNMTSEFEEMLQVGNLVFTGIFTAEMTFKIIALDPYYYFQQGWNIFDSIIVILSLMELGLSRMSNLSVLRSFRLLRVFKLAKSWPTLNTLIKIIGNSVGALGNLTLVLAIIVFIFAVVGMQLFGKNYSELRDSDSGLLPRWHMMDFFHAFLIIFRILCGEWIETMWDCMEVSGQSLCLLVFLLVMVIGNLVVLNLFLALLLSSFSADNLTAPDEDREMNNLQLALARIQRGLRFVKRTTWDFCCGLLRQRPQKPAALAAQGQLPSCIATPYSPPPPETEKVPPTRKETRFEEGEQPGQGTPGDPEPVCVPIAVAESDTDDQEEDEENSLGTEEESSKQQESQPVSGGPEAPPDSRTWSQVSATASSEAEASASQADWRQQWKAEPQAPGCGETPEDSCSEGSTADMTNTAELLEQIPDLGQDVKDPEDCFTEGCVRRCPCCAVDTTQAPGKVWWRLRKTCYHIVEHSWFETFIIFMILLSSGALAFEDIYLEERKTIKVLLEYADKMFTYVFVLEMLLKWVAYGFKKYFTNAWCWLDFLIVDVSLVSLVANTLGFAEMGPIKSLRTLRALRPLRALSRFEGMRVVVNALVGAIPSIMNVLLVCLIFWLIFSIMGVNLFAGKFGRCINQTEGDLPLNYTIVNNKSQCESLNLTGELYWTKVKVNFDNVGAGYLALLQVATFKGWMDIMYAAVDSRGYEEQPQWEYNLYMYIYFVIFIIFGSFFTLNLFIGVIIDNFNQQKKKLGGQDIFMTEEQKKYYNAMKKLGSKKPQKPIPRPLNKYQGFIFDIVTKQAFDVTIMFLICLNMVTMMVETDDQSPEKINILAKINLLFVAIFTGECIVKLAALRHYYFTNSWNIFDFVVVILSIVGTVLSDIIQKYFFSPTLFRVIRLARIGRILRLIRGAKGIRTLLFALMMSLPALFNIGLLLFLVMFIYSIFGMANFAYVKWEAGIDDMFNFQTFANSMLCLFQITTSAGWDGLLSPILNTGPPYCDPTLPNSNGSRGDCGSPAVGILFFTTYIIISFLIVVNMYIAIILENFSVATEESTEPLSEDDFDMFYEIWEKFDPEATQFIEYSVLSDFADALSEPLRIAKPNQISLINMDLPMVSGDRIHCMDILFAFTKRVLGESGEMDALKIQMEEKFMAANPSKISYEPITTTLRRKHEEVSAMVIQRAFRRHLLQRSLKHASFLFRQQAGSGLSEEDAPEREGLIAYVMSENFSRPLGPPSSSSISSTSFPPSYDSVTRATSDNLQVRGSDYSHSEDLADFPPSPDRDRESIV
Chain of Sodium channel protein type 5 subunit alpha/beta-1/beta-2 (O60939 whole entry, further chain): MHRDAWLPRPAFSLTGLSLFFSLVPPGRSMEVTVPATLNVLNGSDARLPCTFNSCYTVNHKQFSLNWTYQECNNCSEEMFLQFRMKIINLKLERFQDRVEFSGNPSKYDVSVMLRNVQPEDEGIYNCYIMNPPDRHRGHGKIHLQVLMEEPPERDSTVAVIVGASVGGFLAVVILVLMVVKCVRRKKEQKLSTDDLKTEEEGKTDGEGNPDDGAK
Chain of Sodium channel protein type 5 subunit alpha/beta-1/beta-2 (Q07699 whole entry, further chain): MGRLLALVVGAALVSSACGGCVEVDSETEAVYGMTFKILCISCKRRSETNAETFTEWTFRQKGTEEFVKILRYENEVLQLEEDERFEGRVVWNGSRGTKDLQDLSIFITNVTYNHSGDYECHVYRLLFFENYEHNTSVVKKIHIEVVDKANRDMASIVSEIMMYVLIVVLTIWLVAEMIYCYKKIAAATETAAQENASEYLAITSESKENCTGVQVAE
Chain of Sodium channel protein type 9 subunit alpha/beta-1/beta-2 (Homo sapiens, UniProt Q15858) (Q15858 whole entry): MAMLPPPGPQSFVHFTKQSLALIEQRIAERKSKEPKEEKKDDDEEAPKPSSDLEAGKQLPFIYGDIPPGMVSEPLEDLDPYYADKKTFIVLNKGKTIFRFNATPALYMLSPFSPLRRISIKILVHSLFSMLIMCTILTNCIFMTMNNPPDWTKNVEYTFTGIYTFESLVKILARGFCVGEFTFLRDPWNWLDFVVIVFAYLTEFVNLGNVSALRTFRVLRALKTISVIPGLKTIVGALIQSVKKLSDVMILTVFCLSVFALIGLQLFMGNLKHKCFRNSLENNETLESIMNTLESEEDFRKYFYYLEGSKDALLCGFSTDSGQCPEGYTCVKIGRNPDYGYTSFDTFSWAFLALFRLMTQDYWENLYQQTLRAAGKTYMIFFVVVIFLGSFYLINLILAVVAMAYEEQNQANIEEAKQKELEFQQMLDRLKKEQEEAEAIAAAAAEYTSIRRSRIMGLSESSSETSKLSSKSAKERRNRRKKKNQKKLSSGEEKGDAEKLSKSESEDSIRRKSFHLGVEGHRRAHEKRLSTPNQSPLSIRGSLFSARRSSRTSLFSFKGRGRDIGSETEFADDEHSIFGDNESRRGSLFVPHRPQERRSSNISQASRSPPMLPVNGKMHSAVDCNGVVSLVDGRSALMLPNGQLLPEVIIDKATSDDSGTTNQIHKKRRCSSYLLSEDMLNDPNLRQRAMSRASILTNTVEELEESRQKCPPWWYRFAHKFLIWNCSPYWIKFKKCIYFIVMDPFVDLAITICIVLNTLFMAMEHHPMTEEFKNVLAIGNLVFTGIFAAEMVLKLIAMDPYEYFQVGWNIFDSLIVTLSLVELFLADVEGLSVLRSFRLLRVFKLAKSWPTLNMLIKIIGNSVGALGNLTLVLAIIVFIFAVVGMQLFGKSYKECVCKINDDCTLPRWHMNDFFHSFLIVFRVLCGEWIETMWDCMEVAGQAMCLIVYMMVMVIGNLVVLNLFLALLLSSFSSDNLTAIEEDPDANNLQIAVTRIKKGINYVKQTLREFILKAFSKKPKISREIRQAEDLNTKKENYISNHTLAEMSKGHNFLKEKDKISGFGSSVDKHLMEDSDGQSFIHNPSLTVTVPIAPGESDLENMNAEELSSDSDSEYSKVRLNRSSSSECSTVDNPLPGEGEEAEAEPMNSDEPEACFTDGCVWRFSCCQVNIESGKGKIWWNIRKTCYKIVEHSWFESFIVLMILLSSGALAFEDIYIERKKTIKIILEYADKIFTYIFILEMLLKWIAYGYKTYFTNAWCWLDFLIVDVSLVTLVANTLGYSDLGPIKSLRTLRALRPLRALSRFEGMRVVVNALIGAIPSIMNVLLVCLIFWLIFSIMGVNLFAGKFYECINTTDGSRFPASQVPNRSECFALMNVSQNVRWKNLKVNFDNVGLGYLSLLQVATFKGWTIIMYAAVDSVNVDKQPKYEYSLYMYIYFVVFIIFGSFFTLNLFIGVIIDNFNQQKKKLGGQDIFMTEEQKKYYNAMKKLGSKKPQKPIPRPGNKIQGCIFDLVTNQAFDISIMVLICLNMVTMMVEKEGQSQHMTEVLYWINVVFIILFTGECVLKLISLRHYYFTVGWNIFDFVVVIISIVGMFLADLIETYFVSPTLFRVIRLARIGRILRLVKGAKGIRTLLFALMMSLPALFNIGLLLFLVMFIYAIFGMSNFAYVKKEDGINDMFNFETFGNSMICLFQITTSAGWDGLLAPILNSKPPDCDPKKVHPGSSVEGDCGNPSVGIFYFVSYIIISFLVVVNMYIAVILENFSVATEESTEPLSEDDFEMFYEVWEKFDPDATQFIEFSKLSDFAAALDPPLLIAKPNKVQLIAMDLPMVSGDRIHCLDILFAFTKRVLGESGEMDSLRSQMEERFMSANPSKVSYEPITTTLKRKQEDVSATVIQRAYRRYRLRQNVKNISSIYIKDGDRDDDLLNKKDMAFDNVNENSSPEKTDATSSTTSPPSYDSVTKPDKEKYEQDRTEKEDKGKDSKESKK
Chain of Sodium channel protein type 9 subunit alpha/beta-1/beta-2 (Homo sapiens, UniProt Q15858) (O60939 whole entry, further chain): as the sequence (O60939 whole entry, further chain) above
Chain of Sodium channel protein type 9 subunit alpha/beta-1/beta-2 (Homo sapiens, UniProt Q15858) (Q07699 whole entry, further chain): as the sequence (Q07699 whole entry, further chain) above

## Cc1cn(-c2cncc(C(F)(F)F)c2)c2ccc(C(=O)NS(=O)(=O)C3CC3)cc12
[1]
  IC50: 0.015 µM
[2]
  IC50: 0.061 µM
[3]
  IC50: 6.6 µM
[4]
  IC50: 14 µM
[5]
  Ratio IC50: 440
[6]
  Ratio IC50: 930
hERG (KCNH2)
  inhibition at 100 µM: 6.9%
[7]
  logD: 1
[8]
  solubility thermodynamic at 4 h: 130 µM (≈ 55 µg/mL)
[9]
  fraction unbound: 0.005
Mus musculus [10]
  Activity: inactive
Mus musculus [11]
  Activity: Active
Mus musculus [12]
  Activity: Active
[13]
  Cmax: 2300 nM
[14]
  Tmax: 3.3 h
[15]
  AUC(0-t): 41.5 µM·h
[16]
  half-life: 17 h
[17]
  clearance: 1.01 mL/min/kg
[18]
  Vd: 0.81 L/kg
[19]
  bioavailability: 117%
[20]
  Ratio: 0.2
Mus musculus [21]
  Activity: inactive
Cytochrome P450 1A2
  inhibition (INH): Not Active
Cytochrome P450 2C9
  inhibition (INH): Not Active
Cytochrome P450 2D6
  inhibition (INH): Not Active
Cytochrome P450 3A4
  inhibition (INH): Not Active
[22]
  Activity: Not Active
